Test results taken from PubChem BioAssay (NCI).
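Protocol summary: plate cells (96-well), add compound at 5 concentrations, incubate 48 h, interpolate endpoints linearly. GI50 = concentration required for 50% inhibition of growth. TGI marks complete inhibition of growth.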 Where a SMILES comes first, the peptide text is derived from it. The star is where a group is joined. Cbz = O=C(OCc1ccccc1)*

How the values were obtained:
Experiment in all cases: inhibition of tumour cell growth, NCI panel, 48 h
HCT-15 colon = test system: HCT-15 colon
LOX IMVI melanoma = test system: LOX IMVI melanoma
NCI-H522 lung = test system: NCI-H522 lung
M14 melanoma = test system: M14 melanoma
U251 CNS = test system: U251 CNS
UACC-62 melanoma = test system: UACC-62 melanoma
RXF 393 renal = test system: RXF 393 renal
NCI-H23 lung = test system: NCI-H23 lung
A549 NSCLC = test system: A549 NSCLC
HOP-62 NSCLC = test system: HOP-62 NSCLC
OVCAR-8 ovarian = test system: OVCAR-8 ovarian
SF-295 CNS = test system: SF-295 CNS
NCI-H226 lung = test system: NCI-H226 lung

Structure (SMILES) | GI50 (HCT-15 colon) | TGI (HCT-15 colon) | GI50 (LOX IMVI melanoma) | TGI (LOX IMVI melanoma) | GI50 (NCI-H522 lung) | TGI (NCI-H522 lung) | GI50 (M14 melanoma) | TGI (M14 melanoma) | GI50 (U251 CNS) | TGI (U251 CNS) | GI50 (UACC-62 melanoma) | TGI (UACC-62 melanoma) | GI50 (RXF 393 renal) | TGI (RXF 393 renal) | TGI (NCI-H23 lung) | TGI (A549 NSCLC) | TGI (HOP-62 NSCLC) | TGI (OVCAR-8 ovarian) | TGI (SF-295 CNS) | TGI (NCI-H226 lung)
COc1ccc(-c2nc(-c3nc4cc(Cl)c(Cl)cc4[nH]3)c3ccccn23)cc1 | 30.1 µM | > 100 µM | 3.6 µM | > 100 µM | 3.37 µM | 82 µM | 4.92 µM | > 100 µM | 3.05 µM | > 100 µM | 5.59 µM | > 100 µM | 1.76 µM | 4.26 µM |  |  |  |  |  | 
CCOC(=O)CCCN |  | > 100 µM |  | > 100 µM |  | > 100 µM |  | > 100 µM |  | > 100 µM |  |  |  | > 100 µM | > 100 µM | > 100 µM | > 100 µM | > 100 µM | > 100 µM | > 100 µM
CCCCOc1ccc(/C=C/C2=[N+](CCO)CCO2)cc1 |  | > 100 µM |  |  |  | > 100 µM |  | > 100 µM |  | > 100 µM |  | > 100 µM |  | 63.3 µM | > 100 µM | > 100 µM | > 100 µM | > 100 µM | > 100 µM | 70 µM
CCCCOC(=O)Nc1ccc(S(=O)(=O)Nc2c(Cl)cccc2Cl)cc1 |  | 79.5 µM |  | > 100 µM |  | > 100 µM |  | > 100 µM |  | > 100 µM |  | 54.6 µM |  | > 100 µM | > 100 µM | > 100 µM | > 100 µM | 64.6 µM | > 100 µM | 
COc1ccc(/C=C2\C(=O)N(C(=O)c3ccc(NC(C)=O)cc3)N=C2C)cc1OC |  | > 100 µM |  | > 100 µM |  | > 100 µM |  | > 100 µM |  |  |  |  |  |  | > 100 µM | > 100 µM | > 100 µM | > 100 µM | > 100 µM | > 100 µM
Fc1ccc(F)c(C=NC23CC4CC(CC(C4)C2)C3)c1 |  | > 10 µM |  | > 10 µM |  | > 10 µM |  | > 10 µM |  | > 10 µM |  |  |  | > 10 µM | > 10 µM | > 10 µM | > 10 µM | > 10 µM | > 10 µM | > 10 µM
CCOC(=O)c1nc2ccccc2nc1Nc1cc(OC)c(OC)c(OC)c1 |  | > 100 µM |  |  |  | > 100 µM |  | > 100 µM |  | > 100 µM |  | > 100 µM |  |  | > 100 µM | > 100 µM | > 100 µM |  | > 100 µM | 
COc1cc2c(c3nc4ccccc4nc13)-c1ccc(SC)c(=O)cc1[C@@H](NC(C)=O)CC2 |  | > 21.7 µM |  | > 100 µM |  | 0.151 µM |  | > 100 µM |  | > 100 µM |  | > 100 µM |  | > 100 µM | 0.066 µM | > 100 µM | > 100 µM |  | > 100 µM | 
CCCSc1ccc2[nH]c(N3C(=O)/C(=C/c4ccc(O)c(OC)c4)N=C3c3ccccc3)cc2c1 |  | 32 µM |  | > 100 µM |  | 24.3 µM |  | 35.2 µM |  |  |  | 19.8 µM |  | > 100 µM | 61.5 µM |  | > 100 µM | > 100 µM |  | 
CN(C)CCNc1c(O)c2c(c(O)c1Cl)C(=O)C=CC2=O |  | 4.29 µM |  |  |  | 3.52 µM |  | 3.64 µM |  | 3.74 µM |  | 3.74 µM |  | 15.4 µM | 4.25 µM | 5.41 µM | 3.65 µM | 3.4 µM | 4.05 µM | 50.1 µM
CC(Nc1cccc(Cl)c1)c1ccncc1 (centres undefined) |  | > 100 µM |  | > 100 µM |  | > 100 µM |  | > 100 µM |  | > 100 µM |  |  |  | > 100 µM | > 100 µM | > 100 µM | > 100 µM | > 100 µM | > 100 µM | > 100 µM
CC(C)C(Sc1nc(-c2ccccc2)c(-c2ccccc2)[nH]1)C(=O)N/N=C/c1ccc(Cl)cc1 (centres undefined) |  | 59.3 µM |  | 28.9 µM |  | 41.7 µM |  | 33.7 µM |  | 39.5 µM |  | 40.1 µM |  |  | 52.8 µM | 82.3 µM | 42.5 µM | 53.6 µM | 47.5 µM | 41.5 µM
CCOC(=O)CCC(NC(=O)C(CC(=O)OC)NC(=O)OCc1ccccc1)C(=O)NC(CC(=O)OC)C(=O)NC(CCC(=O)OCC)C(=O)NC(CC(=O)OC)C(=O)NC(CCC(=O)OCC)C(=O)NC(CC(=O)OCC)C(=O)OCC (centres undefined) (Cbz-D(OMe)E(OEt)D(OMe)E(OEt)D(OMe)E(OEt)D(OEt)-OEt; configuration not given here) |  | > 100 µM |  | > 100 µM |  | > 100 µM |  |  |  | > 100 µM |  | > 100 µM |  |  | > 100 µM | > 100 µM | > 100 µM | > 100 µM |  | > 100 µM
Cc1ccc(S(=O)(=O)N(CC(O)COc2ccccc2)c2c(F)c(F)c(F)c(F)c2F)cc1 (centres undefined) |  | 33 µM |  | 28.6 µM |  |  |  | 41 µM |  | 27.9 µM |  | 33.5 µM |  |  | 29.6 µM | 36.8 µM | 35.2 µM | 32.8 µM | 37.4 µM | 42.7 µM
Cn1c2ccccc2n2c(=O)c(-c3ccc(Cl)cc3)nnc12 |  | > 100 µM |  | > 100 µM |  | > 100 µM |  | > 100 µM |  | > 100 µM |  |  |  | > 100 µM | > 100 µM | > 100 µM |  | > 100 µM | > 100 µM | > 100 µM
CN(C)CC1CCC/C(=C\c2ccc(Cl)c(Cl)c2)C1=O (centres undefined) |  | 6.33 µM |  |  |  | 4.1 µM |  | 11.2 µM |  | 6.52 µM |  | 12.8 µM |  |  | 23.8 µM | 30.4 µM | 26.8 µM | 9.89 µM | 25.8 µM | 24.5 µM
O=[N+]([O-])C(/C(Cl)=C(/Cl)N1CCOCC1)=C1\Nc2ccccc2O1 |  | > 100 µM |  |  |  |  |  | > 100 µM |  | > 100 µM |  | > 100 µM |  |  | > 100 µM | > 100 µM | > 100 µM | > 100 µM | > 100 µM | > 100 µM
COC1CCC(O)C(CO)O1 (centres undefined) |  | > 100 µM |  | 65.4 µM |  | 26.9 µM |  | > 100 µM |  |  |  | > 100 µM |  | > 100 µM | > 100 µM | > 100 µM | > 100 µM | > 100 µM | > 100 µM | 
OC1CCN2Cc3ccccc3N=C12 (centres undefined) |  | > 100 µM |  | > 100 µM |  |  |  | > 100 µM |  | > 100 µM |  | > 100 µM |  | > 100 µM | > 100 µM | > 100 µM | > 100 µM | > 100 µM | > 100 µM | > 100 µM
CCN(CC)c1c(-c2c(OC(C)C)c(=O)c2=O)c(=O)n2ccsc2c1OC(C)=O |  | > 100 µM |  | > 100 µM |  | > 100 µM |  | > 100 µM |  | > 100 µM |  | > 100 µM |  |  | > 100 µM |  | > 100 µM | > 100 µM | > 100 µM | > 100 µM
CC1=C[C@H](C[C@]2(C)c3c(c4c(C)cccc4oc3=O)O[C@@H]2C)OC1=O |  | > 100 µM |  | > 100 µM |  | 49.6 µM |  | > 100 µM |  | > 100 µM |  | > 100 µM |  |  | > 100 µM | > 100 µM | > 100 µM | > 100 µM | > 100 µM | > 100 µM
C[C@]12C(=O)OC[C@H](c3ccccc3)N1C(=O)N(Cc1ccccc1)[C@@H]2CO |  | > 100 µM |  | > 100 µM |  |  |  | > 100 µM |  |  |  | > 100 µM |  | > 100 µM |  | > 100 µM | > 100 µM | > 100 µM | > 100 µM | > 100 µM
CCN(CC)P(=O)(c1ccc2c(c1)OCCOCCOCCOCCO2)N(CC)CC |  | > 100 µM |  | > 100 µM |  | > 100 µM |  | > 100 µM |  |  |  | > 100 µM |  |  | > 100 µM | > 100 µM | > 100 µM | > 100 µM | > 100 µM | > 100 µM
CCO/C(O)=c1/s/c(=C2/SC(=S)N(c3ccc(C)cc3)C2=O)n(-c2ccccc2)c1=N |  | > 100 µM |  |  |  | > 100 µM |  | > 100 µM |  | > 100 µM |  | > 100 µM |  |  | > 100 µM | > 100 µM | 81.9 µM | > 100 µM | 59.7 µM | > 76.9 µM
O=C1CC(Nc2ccccc2)c2c(Cl)sc(Cl)c21 (centres undefined) |  | 2.36 µM |  | 2.09 µM |  | 0.315 µM |  | 3.4 µM |  | 3.32 µM |  | 2.69 µM |  |  | 3.75 µM | 6 µM | 8.1 µM |  | 19.5 µM | 24 µM
CC1OC1C(=O)P(=O)(O)O (centres undefined) |  | > 100 µM |  | > 100 µM |  | > 100 µM |  | > 100 µM |  | > 100 µM |  | > 100 µM |  |  | > 100 µM | > 100 µM | > 100 µM | > 100 µM | > 100 µM | > 100 µM
CC(=O)Oc1ccc2c(c1)O/C(=C\c1ccc(N(C)C)cc1)C2=O |  | > 100 µM |  |  |  | 66.2 µM |  | > 100 µM |  | > 100 µM |  | > 100 µM |  | > 100 µM | > 100 µM | > 100 µM | > 100 µM | > 100 µM |  | > 100 µM
Cc1cnoc1/N=C1\C=C(Nc2oncc2C)C(=O)c2ccccc21 |  | > 100 µM |  | > 100 µM |  |  |  | > 100 µM |  | > 100 µM |  | > 100 µM |  | > 100 µM | > 100 µM | > 100 µM | > 100 µM | > 100 µM | > 100 µM | > 100 µM
